Experimental data as given in patent US20260217712A1, “SOLID STATE FORMS OF MNK INHIBITORS” (4E Therapeutics, Inc., priority 2023, published 2026).
Several values for one entry are separate records, joined by “and”; a condition that tells them apart may be missing. Identical values can stand only once. Counter-ions that a name gives are not always drawn.

Assays:
Format in all cases: physicochemical
[1] = Static storage at 40° C./75% RH, XRPD and HPLC post storage; details: 7 days
[2] = as above; details: for stability to storage at 40° C./75% RH (in words): 40° C./75% RH (elevated temperature and humidity); for HPLC purity post storage at 40° C./75% RH / XRPD post storage at 40° C./75% RH: 7 days
Procedure: Purity analysis was performed on an Agilent HP1100/Infinity II 1260 series system equipped with a diode array detector and using OpenLAB software. The full method details are provided below:
Poorly Crystalline Structure (I) (from Lot A, Free Form Pattern 1, 30 mg) was dissolved in 50 volumes of THF:Water 9:1 at 60° C. in 13 vials, stirring at 500 RPM (small amount of debris present). The solutions were then treated with 1.1 molar equivalents (90/180 μL) of selected counter-ions (Table 7). The resulting solutions were then cooled down to 5° C. at 0.1° C./min and were held at this temperature for 2 days. The suspensions were filtered and dried under suction for 20 min. The gummed sample was left with the cap off to promote crystallization. All solids obtained were initially analyzed by XRPD and stored in glass HPLC vials for subsequent analysis.
Any solids obtained were analyzed by XRPD, ^1H NMR, HPLC, TGA, DSC, XRPD post storage at 40° C./75% RH after 7 days & IC if necessary. Additional microscopy techniques (PLM & HSM) were used to complement the above analysis where appropriate.

[3] = Competitive slurries of Pattern 3 and Pattern 11, XRPD; details: for XRPD after 7 days / XRPD after 17 days: competitive slurry, solvent and temperature per sample; for XRPD after 7 days: 20 vol
Procedure: A solid mixture of Structure (I) Pattern 3 (from Lot B, 300 mg) and Pattern 11 (Sample 35-1, 300 mg) was mixed for 3 hours using a turbula mixer.
The solid mixture (30 mg) was suspended in solvent (dried with molecular sieves, 600 μL, 20 vol) and either stirred in the fridge, shaken at RT or 55° C. After 7 days, an aliquot of each suspension was analyzed by XRPD. Samples that were still a mixture of forms were placed back into fridge/shakers for a further 10 days and re-analyzed (results shown in Table 36).
Competitive slurry experiments at 55° C., along with one at 5° C., were repeated using a saturated solution as the solvent mixture to minimize dissolution that may have occurred at temperatures other than room temperature.
A saturated solution of THF/Water (9:1) (5 mL) with Structure (I) (from Lot B) was equilibrated at 55° C. overnight in a shaker. The solution was filtered using 0.45 μm nylon filter before use.
A solid mixture of Pattern 3 and Pattern 11 (30 mg) was suspended in the saturated solution (600 μL, 20 vol) and either stirred in the fridge (5° C.) or shaken at 55° C. After 1 day, aliquots of the suspensions were analyzed by XRPD. Both samples were placed back into fridge/shaker. After a total of 11 days, the samples were removed from fridge/shaker. Sample 38-2 was filtered before XRPD, Sample 38-1 was pipetted onto the XRPD holder and allowed to dry before analysis (solid passed through filter).

[4] = High temperature solubility assessment; design: key: T = turbid solution; X = suspension; details: for observation at 60° C.: 30 mg in 50 volumes of the sample's solvent; for observation at 70° C. / observation at 80° C. / observation at 85° C.: 50 volumes
Procedure: Due to low solubility observed in the experiments of Example 2, a second solubility assessment of Structure (I) from Lot A was carried out using higher temperatures closer to the boiling points of the selected solvent systems (Table 10). Once at temperature, phosphoric acid or a base was added to either promote formation of a phosphate or Na/K salt.
Structure (I) (from Lot A, Free Form Pattern 1, 30 mg) was weighed into 6 HPLC vials and a stirrer bar added to each one. 50 volumes of different solvents were added to the samples according to Table 10 and the samples heated incrementally on a Polar Bear heating block, stirring at 400 RPM. Observations were noted as the temperature was increased, holding at each temperature for 10 minutes.

Cc1cc(Nc2cc(N)ncn2)c(=O)n2c1C(=O)NC21CCC2(CC2)CC1 [HCl Pattern 1]
XRPD post storage at 40° C./75% RH ([1]; listed as 22-1): Unchanged | stability to storage at 40° C./75% RH (in words) ([2]; listed as Chloride Pattern 1): remained stable by XRPD & HPLC | HPLC purity post storage at 40° C./75% RH ([2]; listed as 22-1): 99.3%

Cc1cc(Nc2cc(N)ncn2)c(=O)n2c1C(=O)NC21CCC2(CC2)CC1 [TOS Pattern 1]
XRPD post storage at 40° C./75% RH [2]: large loss in crystallinity | HPLC purity post storage at 40° C./75% RH ([2]; listed as 9-4): 99.3%

Cc1cc(Nc2cc(N)ncn2)c(=O)n2c1C(=O)NC21CCC2(CC2)CC1 [HCl Patterns 1 and 3]
XRPD post storage at 40° C./75% RH ([1]; listed as 9-2): No change by XRPD | stability to storage at 40° C./75% RH (in words) [2]: stable to storage | HPLC purity post storage at 40° C./75% RH ([2]; listed as 9-2): 97.7% purity

Cc1cc(Nc2cc(N)ncn2)c(=O)n2c1C(=O)NC21CCC2(CC2)CC1 [Pattern 36-5]
XRPD after 7 days [3]: Pattern 11

Cc1cc(Nc2cc(N)ncn2)c(=O)n2c1C(=O)NC21CCC2(CC2)CC1 [Pattern 2]
HPLC purity post storage at 40° C./75% RH ([2]; listed as 9-12): 98.8%

Cc1cc(Nc2cc(N)ncn2)c(=O)n2c1C(=O)NC21CCC2(CC2)CC1 [Pattern 36-7]
XRPD after 7 days [3]: Pattern 11

Cc1cc(Nc2cc(N)ncn2)c(=O)n2c1C(=O)NC21CCC2(CC2)CC1 [HBr Pattern 1]
XRPD post storage at 40° C./75% RH ([1]; listed as 9-1): XRPD-HBr Pattern 1 | change of chemical purity on storage at 40° C./75% RH (in words) [2]: slight uplift in purity | stability to storage at 40° C./75% RH (in words) ([2]; listed as 9-1): behavior but not stable to storage | XRPD post storage at 40° C./75% RH [2]: remained HBr Pattern 1 | HPLC purity post storage at 40° C./75% RH ([2]; listed as 9-1): 98.7% purity

Cc1cc(Nc2cc(N)ncn2)c(=O)n2c1C(=O)NC21CCC2(CC2)CC1 [Pattern 36-3]
XRPD after 7 days [3]: Patterns 3 and 11 | XRPD after 17 days [3]: Patterns 3 and 11

Cc1cc(Nc2cc(N)ncn2)c(=O)n2c1C(=O)NC21CCC2(CC2)CC1 [Pattern 10-7]
observation at 60° C. [4]: T | observation at 70° C. [4]: T

Cc1cc(Nc2cc(N)ncn2)c(=O)n2c1C(=O)NC21CCC2(CC2)CC1 [Pattern 36-13]
XRPD after 7 days [3]: Patterns 3 and 11 | XRPD after 17 days [3]: Patterns 3 and 11

Cc1cc(Nc2cc(N)ncn2)c(=O)n2c1C(=O)NC21CCC2(CC2)CC1 [SUL Pattern 1]
XRPD post storage at 40° C./75% RH ([1]; listed as 9-3): SUL Pattern 1 | change of chemical purity on storage at 40° C./75% RH (in words) [2]: decrease in the observed chemical purity | stability to storage at 40° C./75% RH (in words) [2]: stable to storage | HPLC purity post storage at 40° C./75% RH ([2]; listed as 9-3): 95.6% | change of chemical purity on storage at 40° C./75% RH (in words) ([2]; listed as 9-3): complex thermal data, loss of purity

Cc1cc(Nc2cc(N)ncn2)c(=O)n2c1C(=O)NC21CCC2(CC2)CC1 [Pattern 36-12]
XRPD after 7 days [3]: Pattern 11

Cc1cc(Nc2cc(N)ncn2)c(=O)n2c1C(=O)NC21CCC2(CC2)CC1 [Tartrate Pattern 1]
XRPD post storage at 40° C./75% RH ([1]; listed as 9-9): pattern retained. | stability to storage at 40° C./75% RH (in words) [2]: stable to storage | HPLC purity post storage at 40° C./75% RH ([2]; listed as 9-9): 98.1% purity. Tartrate

Cc1cc(Nc2cc(N)ncn2)c(=O)n2c1C(=O)NC21CCC2(CC2)CC1 [Pattern 36-14]
XRPD after 7 days [3]: Patterns 3 and 11 | XRPD after 17 days [3]: Patterns 3 and 11

Cc1cc(Nc2cc(N)ncn2)c(=O)n2c1C(=O)NC21CCC2(CC2)CC1 [Pattern 10-4]
observation at 60° C. [4]: X | observation at 70° C. [4]: X | observation at 80° C. [4]: X | observation at 85° C. [4]: X

Cc1cc(Nc2cc(N)ncn2)c(=O)n2c1C(=O)NC21CCC2(CC2)CC1 [Pattern 10-6]
observation at 60° C. [4]: T | observation at 70° C. [4]: T

Cc1cc(Nc2cc(N)ncn2)c(=O)n2c1C(=O)NC21CCC2(CC2)CC1 [Pattern 10-3]
observation at 60° C. [4]: X | observation at 70° C. [4]: X | observation at 80° C. [4]: X | observation at 85° C. [4]: X

Cc1cc(Nc2cc(N)ncn2)c(=O)n2c1C(=O)NC21CCC2(CC2)CC1 [HCl Pattern 4]
stability to storage at 40° C./75% RH (in words) [2]: instability to storage | HPLC purity post storage at 40° C./75% RH ([2]; listed as 13-2): frit are not present. 95.7% purity

Cc1cc(Nc2cc(N)ncn2)c(=O)n2c1C(=O)NC21CCC2(CC2)CC1 [CIT Pattern 1]
XRPD post storage at 40° C./75% RH ([1]; listed as 9-11): Citrate Pattern 1 | HPLC purity post storage at 40° C./75% RH ([2]; listed as 9-11): 98.8%

Cc1cc(Nc2cc(N)ncn2)c(=O)n2c1C(=O)NC21CCC2(CC2)CC1 [Pattern 36-11]
XRPD after 7 days [3]: Pattern 11 + extra

Cc1cc(Nc2cc(N)ncn2)c(=O)n2c1C(=O)NC21CCC2(CC2)CC1 [Pattern 36-15]
XRPD after 7 days [3]: Patterns 3 and 11 | XRPD after 17 days [3]: Pattern 11

Cc1cc(Nc2cc(N)ncn2)c(=O)n2c1C(=O)NC21CCC2(CC2)CC1 [Pattern 10-8]
observation at 60° C. [4]: T | observation at 70° C. [4]: T

Cc1cc(Nc2cc(N)ncn2)c(=O)n2c1C(=O)NC21CCC2(CC2)CC1 [BES Pattern 1]
stability to storage at 40° C./75% RH (in words) [2]: not stable to storage | HPLC purity post storage at 40° C./75% RH ([2]; listed as 9-6): 98.8%

Cc1cc(Nc2cc(N)ncn2)c(=O)n2c1C(=O)NC21CCC2(CC2)CC1 [Pattern 36-1]
XRPD after 7 days [3]: Pattern 11

Cc1cc(Nc2cc(N)ncn2)c(=O)n2c1C(=O)NC21CCC2(CC2)CC1 [Pattern 10-5]
observation at 60° C. [4]: X | observation at 70° C. [4]: X | observation at 80° C. [4]: X | observation at 85° C. [4]: X

Cc1cc(Nc2cc(N)ncn2)c(=O)n2c1C(=O)NC21CCC2(CC2)CC1 [Pattern 22-8]
HPLC purity post storage at 40° C./75% RH [2]: 99.4% | XRPD post storage at 40° C./75% RH [2]: SUL P2

Cc1cc(Nc2cc(N)ncn2)c(=O)n2c1C(=O)NC21CCC2(CC2)CC1 [Pattern 36-6]
XRPD after 7 days [3]: Pattern 11

Cc1cc(Nc2cc(N)ncn2)c(=O)n2c1C(=O)NC21CCC2(CC2)CC1 [Pattern 36-2]
XRPD after 7 days [3]: Pattern 11

Cc1cc(Nc2cc(N)ncn2)c(=O)n2c1C(=O)NC21CCC2(CC2)CC1 [Pattern 5]
XRPD post storage at 40° C./75% RH ([1]; listed as 30-2): transition completed and 7 days: Change in form-Pattern 3

Cc1cc(Nc2cc(N)ncn2)c(=O)n2c1C(=O)NC21CCC2(CC2)CC1 [Pattern 38-1]
XRPD after 1 day ([3]; slurry in saturated THF/Water (9:1) solution): Patterns 3 and 11 +

Cc1cc(Nc2cc(N)ncn2)c(=O)n2c1C(=O)NC21CCC2(CC2)CC1 [Pattern 10-2]
observation at 60° C. [4]: X | observation at 70° C. [4]: X | observation at 80° C. [4]: X | observation at 85° C. [4]: X

Cc1cc(Nc2cc(N)ncn2)c(=O)n2c1C(=O)NC21CCC2(CC2)CC1 [PHO Pattern 2]
HPLC purity post storage at 40° C./75% RH [2]: crystallinity. 97.0% purity observed. | XRPD post storage at 40° C./75% RH [2]: lost a significant amount of crystallinity

Cc1cc(Nc2cc(N)ncn2)c(=O)n2c1C(=O)NC21CCC2(CC2)CC1 [Pattern 10-1]
observation at 60° C. [4]: X | observation at 70° C. [4]: X

Cc1cc(Nc2cc(N)ncn2)c(=O)n2c1C(=O)NC21CCC2(CC2)CC1 [Pattern 36-4]
XRPD after 7 days [3]: Pattern 11
